Reference: US20260265256A1 (IMPACT THERAPEUTICS (SHANGHAI), INC., priority 2023, published 2026)

How the values were obtained:
[1] = tested on: MDA-MB-436 cells; test: Growth inhibition assay against BRCA mutant human breast cancer MDA-MB-436 cell line (CCK-8, 7 days); type: cell-based; conditions: 168 h, MDA-MB-436, 7 days, read-out: IC50 (nM), proliferation of human breast cancer cells MDA-MB-436
Experimental: The cells were cultured in complete medium (DMEM medium+10% FBS+Insulin+glutathione). When the confluence reached about 80%, cells were digested and gently dispensed from the bottom of the dish with a 1 mL pipette. Cell suspension was collected and centrifuged at 500 rpm for 3 min. The supernatant was discarded, and the cell pellet were re-suspended in complete medium. The cells were seeded into a culture dish at an appropriate proportion, and then cultured in a 5% CO2 incubator at 37° C. The assay was carried out when the cells were in optimum condition and the confluence was reached 80%. Cells in the logarithmic growth phase were taken to centrifugate, and the culture supernatant was removed. The cells were resuspended in refresh complete medium and counted. The resuspended cells were seeded at 3000/well in a 96-well plate and incubated at 37° C., 5% CO2 incubator overnight. […] The solution was mixed by oscillation. 0.10% DMSO was used as the control.
The next day, the 96-well plate inoculated with cells was taken out from the incubator, and the culture supernatant was removed. Then fresh medium of 195 uL/well and 5 μL/well of 40× test compound solution as mentioned above were added into the 96 well plate, respectively. Finally, the plate was incubated for 7 days in a 37° C. 5% CO2 incubator. The medium containing compound was changed on the fourth day. After 7 days, 20 μL of CCK-8 was added to each well and shaken gently, then was cultured for 4 hours. The plate was shaken for 5 min after incubation, the absorbance values of 450 nm or 650 nm wavelengths were recorded respectively (OD=absorbance value of 450 nm−absorbance value of 650 nm) by using the multifunction readout instrument.
Data were analyzed by software GraphPad Prism 6.0. The inhibitory activity of compounds on cell proliferation was plotted using cell survival rate against the compound concentration as coordinates. Cell survival rate %=(ODcompound−ODbackground)/(ODDMSO−ODbackground)×100.
Table 2 summarizes the inhibitory effect data (IC50) of the compounds on the proliferation of human breast cancer cells MDA-MB-436.

[2] = molecular target: T1, PDE3A (Homo sapiens, UniProt Q14432); test: PDE3A fluorescence polarization (FP) assay; type: biochemical; conditions: 2 nM PDE3A, 0.2 μM FAM-cAMP, read-out: IC50 (μM), PDE3A enzyme activity
T1 construct: purchased Sino Biological 11908-H20B1
Experimental: A PDE3A fluorescence polarization (FP) assay in a multi-step format was performed using black, round bottom 384-well plates (Corning, 4514). The testing compounds were serially diluted from stock solutions to 11 concentrations with a 3-fold dilution factor using DMSO. Fifty nL of compound dilutions was mixed with 5 μL of reaction buffer (10 mM Tris-HCl, pH 7.2, 10 mM MgCl2, 0.05% NaN3, 0.1% phosphate-free BSA) containing 0.2 μM FAM-cAMP (BPS, 60200) and 2 nM PDE3A (Sino Biological, 11908-H20B1) enzyme, and incubated for 60 min at 25° C. Afterwards, 15 μL binding agent mixture (Molecular Devices, R8124) was added to each well and the plate was incubated for 60 min at 25° C. The plate was loaded to a BMG PHERAstar FSX to read Fluorescence Polarization (FP) values at a setting of: Ex: 485 nm and Em: 520 nm. Emission light intensity with polarizers parallel (Em|) and emission light intensity with polarizers perpendicular (Em⊥) were recorded. The Polarization (mP) values were calculated using the following formula: mP=(SignalEm|−SignalEm⊥)/(SignalEm|+SignalEm⊥).
Data analysis: • 1) The inhibition % of a compound dose is calculated as:
[formula] • wherein mPMin and mPMax refer to the polarization readings in the condition of substrate only and substrate+enzyme, respectively. • 2) The IC50 values were calculated from non-linear curve fitting using following regression equation using a commercial curve fitting software GraphPad Prism 9.2.0.
wherein X refers to Log of compound concentration and Y refers to % Inhibition.
Table 3 summarize the inhibitory effects of compounds on PDE3A enzyme activity (IC50).

[3] = molecular target: recombinant poly(ADP-ribose) polymerase 2 (PARP2) (Homo sapiens, UniProt Q9UGN5); test: PARP2 chemiluminescent assay; type: biochemical; conditions: PARP2 enzyme activity, chemiluminescence, 40 ng enzyme/well
Experimental: The solution of recombinant poly(ADP-ribose) polymerase 1 and 2 (PARP1 and PARP2) (40 ng enzyme/well) and the compounds to be tested were mixed, respectively. The solutions were added to a 96-well plate coated with histone mixture, incubated at room temperature for 1 h, then 50 μL 0.3 ng/mL Streptavidin-HRP was added to each well. The plates were incubated for 30 minutes at room temperature. Finally, the plates were treated with streptavidin-HRP followed by addition of the ELISA ECL substrate to produce chemiluminescence that can be measured using a chemiluminescence reader. Inhibition of the tested compound to PARP1/2 enzyme activity was calculated according to the following formula. [formula] IC50 value is obtained by fitting the s-shaped dose response curve equation by using XL Fit software.

T1 sequence (Q14432 669-1141 limits assumed): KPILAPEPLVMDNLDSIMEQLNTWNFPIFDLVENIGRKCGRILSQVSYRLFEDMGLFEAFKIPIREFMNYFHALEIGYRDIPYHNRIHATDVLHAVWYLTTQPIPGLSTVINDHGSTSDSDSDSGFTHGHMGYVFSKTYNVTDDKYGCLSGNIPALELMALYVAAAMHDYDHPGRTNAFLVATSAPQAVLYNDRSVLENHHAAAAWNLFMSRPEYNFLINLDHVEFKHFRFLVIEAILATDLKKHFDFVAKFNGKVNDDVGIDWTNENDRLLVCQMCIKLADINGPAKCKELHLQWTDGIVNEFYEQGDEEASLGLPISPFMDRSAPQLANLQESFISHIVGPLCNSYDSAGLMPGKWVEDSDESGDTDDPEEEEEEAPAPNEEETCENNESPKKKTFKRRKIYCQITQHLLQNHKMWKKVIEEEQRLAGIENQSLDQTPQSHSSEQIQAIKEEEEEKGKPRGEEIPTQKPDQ
Sequence of recombinant poly(ADP-ribose) polymerase 2 (PARP2) (Q9UGN5 whole entry): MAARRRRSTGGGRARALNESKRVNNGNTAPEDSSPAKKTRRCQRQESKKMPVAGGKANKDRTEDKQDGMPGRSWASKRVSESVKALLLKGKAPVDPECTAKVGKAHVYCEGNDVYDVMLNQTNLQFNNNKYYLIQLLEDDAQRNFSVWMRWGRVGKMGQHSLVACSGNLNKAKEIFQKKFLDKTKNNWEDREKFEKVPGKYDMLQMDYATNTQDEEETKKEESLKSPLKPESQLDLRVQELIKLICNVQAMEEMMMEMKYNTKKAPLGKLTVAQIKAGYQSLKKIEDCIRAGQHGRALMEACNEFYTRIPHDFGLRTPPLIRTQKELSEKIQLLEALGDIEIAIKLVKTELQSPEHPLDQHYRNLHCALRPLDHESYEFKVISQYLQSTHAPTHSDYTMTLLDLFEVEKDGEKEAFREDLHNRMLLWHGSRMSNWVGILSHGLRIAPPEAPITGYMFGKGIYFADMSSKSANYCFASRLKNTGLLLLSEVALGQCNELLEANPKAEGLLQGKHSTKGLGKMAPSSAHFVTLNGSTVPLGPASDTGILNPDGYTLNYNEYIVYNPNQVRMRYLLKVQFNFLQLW

CNC(=O)c1ccc(-n2ncc3c2CN(Cc2ccc4c([nH]c(=O)c5c(C)cnn54)c2F)C3)cn1 [Example 1-2, 5-(5-((6-fluoro-3-methyl-4-oxo-4,5-dihydropyrazolo[1,5-a]quinoxalin-7-yl)methyl)-5,6-dihydropyrrolo[3,4-c]pyrazol-1(4H)-yl)-N-methylpicolinamide]
IC50 [1]: > 100 nM
IC50 [2]: > 25 µM
IC50 [3]: > 1000 nM

CCNC(=O)c1ccc(-n2cc3c(n2)CN(Cc2ccc4c([nH]c(=O)c5c(C)cnn54)c2F)C3)cn1 [Example 6, 5-(5-((6-fluoro-3-methyl-4-oxo-4,5-dihydropyrazolo[1,5-a]quinoxalin-7-yl)methyl)-5,6-dihydropyrrolo[3,4-c]pyrazol-2(4H)-yl)-N-ethylpicolinamide]
IC50 [1]: 2.07 nM
IC50 [2]: > 30 µM
IC50 [3]: > 10000 nM

CNC(=O)c1ccc(-n2cc3c(n2)CN(Cc2ccc4c([nH]c(=O)c5c(F)cnn54)c2F)C3)cn1 [Example 13, 5-(5-((3,6-difluoro-4-oxo-4,5-dihydropyrazolo[1,5-a]quinoxalin-7-yl)methyl)-5,6-dihydropyrrolo[3,4-c]pyrazol-2(4H)-yl)-N-methylpicolinamide]
IC50 [1]: 0.99 nM
IC50 [2]: > 30 µM
IC50 [3]: 42 nM

CNC(=O)c1ccc(-n2cc3c(n2)CN(Cc2ccc4c([nH]c(=O)c5c(F)cnn54)c2F)C3)c(F)n1 [Example 15, 5-(5-((3,6-difluoro-4-oxo-4,5-dihydropyrazolo[1,5-a]quinoxalin-7-yl)methyl)-5,6-dihydropyrrolo[3,4-c]pyrazol-2(4H)-yl)-6-fluoro-N-methylpicolinamide]
IC50 [1]: 1.36 nM
IC50 [2]: > 30 µM
IC50 [3]: 373 nM

CNC(=O)c1ccc(-n2cc3c(n2)CN(Cc2ccc4c([nH]c(=O)c5c(F)cnn54)c2F)C3)c(Cl)n1 [Example 16, 5-(5-((3,6-difluoro-4-oxo-4,5-dihydropyrazolo[1,5-a]quinoxalin-7-yl)methyl)-5,6-dihydropyrrolo[3,4-c]pyrazol-2(4H)-yl)-6-chloro-N-methylpicolinamide]
IC50 [1]: 5.65 nM
IC50 [2]: > 30 µM
IC50 [3]: 1190 nM

CCNC(=O)c1ccc(-n2cc3c(n2)CN(Cc2ccc4c([nH]c(=O)c5c(F)cnn54)c2F)C3)c(F)n1 [Example 19, 5-(5-((3,6-difluoro-4-oxo-4,5-dihydropyrazolo[1,5-a]quinoxalin-7-yl)methyl)-5,6-dihydropyrrolo[3,4-c]pyrazol-2(4H)-yl)-N-ethyl-6-fluoropicolinamide]
IC50 [1]: 1.57 nM
IC50 [2]: > 30 µM
IC50 [3]: > 10000 nM

CNC(=O)c1ccc(-n2cc3c(n2)CN(Cc2ccc4c([nH]c(=O)c5occc54)c2F)C3)cn1 [Example 28, 5-(5-((6-fluoro-4-oxo-4,5-dihydrofuro[2,3-c]quinolin-7-yl)methyl)-5,6-dihydropyrrolo[3,4-c]pyrazol-2(4H)-yl)-N-methylpicolinamide]
IC50 [1]: 0.76 nM
IC50 [2]: 29.4 µM
IC50 [3]: 119 nM

CNC(=O)c1ccc(-n2cc3c(n2)CN(Cc2ccc4c([nH]c(=O)n5cc(C)nc45)c2F)C3)cn1 [Example 49, 5-(5-((7-fluoro-2-methyl-5-oxo-5,6-dihydroimidazo[1,2-c]quinazolin-8-yl)methyl)-5,6-dihydropyrrolo[3,4-c]pyrazol-2(4H)-yl)-N-methylpicolinamide]
IC50 [1]: 0.71 nM
IC50 [2]: > 30 µM

CCNC(=O)c1ccc(-n2cc3c(n2)CN(Cc2ccc4c([nH]c(=O)n5cc(C)nc45)c2F)C3)c(F)n1 [Example 52, N-ethyl-6-fluoro-5-(5-((7-fluoro-2-methyl-5-oxo-5,6-dihydroimidazo[1,2-c]quinazolin-8-yl)methyl)-5,6-dihydropyrrolo[3,4-c]pyrazol-2(4H)-yl)picolinamide]
IC50 [1]: 0.92 nM
IC50 [2]: > 30 µM

CNC(=O)c1ccc(N2CC3=C(CN(Cc4ccc5c([nH]c(=O)c6c(F)cnn65)c4F)C3)C2)c(F)n1 [Example 58]
IC50 [1]: 2.97 nM
IC50 [2]: 2.41 µM
